How the values were obtained:
thromboxane synthetase = target: T1, thromboxane synthetase (Homo sapiens, UniProt P24557); test: inhibition of thromboxane (TX) formation in thrombin stimulated washed platelets, TXB2 specific radioimmunoassay; type: cell-based; details: for IC50: 0,6 IU/ml thrombin stimulated human washed platelets, TXB2 specific radioimmunoassay; for inhibition of TXB2-formation: concentration not given; for specificity as inhibitor of thromboxane synthetase: in vitro-study, inhibition of TX formation on platelet aggregation
T1 construct: thrombin stimulated human washed platelets; endogenous in cells; host or cells: human washed platelets
T1 sequence (P24557 1-533): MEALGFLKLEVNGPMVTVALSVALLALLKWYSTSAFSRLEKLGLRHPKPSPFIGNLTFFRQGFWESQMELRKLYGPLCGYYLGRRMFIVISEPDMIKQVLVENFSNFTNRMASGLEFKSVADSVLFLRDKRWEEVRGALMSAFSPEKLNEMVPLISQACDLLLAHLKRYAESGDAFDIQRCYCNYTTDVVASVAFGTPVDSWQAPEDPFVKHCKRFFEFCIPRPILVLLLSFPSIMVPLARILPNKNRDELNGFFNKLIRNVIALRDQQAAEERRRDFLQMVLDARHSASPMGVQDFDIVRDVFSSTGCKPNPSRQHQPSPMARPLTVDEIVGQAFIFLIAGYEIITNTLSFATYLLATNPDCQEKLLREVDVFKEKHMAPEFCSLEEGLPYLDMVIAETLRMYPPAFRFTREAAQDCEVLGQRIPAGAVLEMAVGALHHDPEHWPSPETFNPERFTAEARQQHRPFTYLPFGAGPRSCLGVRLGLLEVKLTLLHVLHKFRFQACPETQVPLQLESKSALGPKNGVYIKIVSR
Protocol: (§1) In 0,6 IU/ml thrombin stimulated human washed platelets the IC50 (μM) for inhibition of TX formation (measured by TXB2 specific radioimmunoassay) was 1,1 for LG 82-4-00 and 1,3 for LG 82-4-01. The two substances inhibited TXB2 -formation and 1-2 μg/ml collagen induced platelet aggregation by more than 95%.

platelet aggregation [1] = test: collagen induced platelet aggregation; type: cell-based, human; details: 1-2 μg/ml collagen; concentration not given
Protocol: as §1

platelet aggregation [2] = test: proaggregatory activity and primary wave ADP aggregation; type: cell-based
Source text: Neither LG 82-4-00 nor LG 82-4-01 had vasoconstrictor, proaggregatory or antagonistic activity or affected primary wave ADP aggregation (P >0,05).

Which IC50 (thromboxane synthetase) does the source give for `Cl.O=C(O)c1ccc(OCCn2ccnc2)s1` [LG 82-4-00, 5-[2-(1-Imidazolyl)-1-ethoxy]thiophene-2-carboxylic acid hydrochloride] here?
Its IC50 is 1100 nM.

And the “inhibition of TXB2-formation” value (thromboxane synthetase)?
The value was “more than 95%”.

What about the “specificity as inhibitor of thromboxane synthetase” value (thromboxane synthetase) of the same molecule?
Its value is “specific inhibitors of thromboxane synthetase”.

What about the “inhibition of collagen induced platelet aggregation” value (platelet aggregation [1]) of the same molecule?
The value was “more than 95%”.

What about the proaggregatory activity (platelet aggregation [2]) of the same molecule?
Its proaggregatory activity is “Neither”.

What does the source list for `Cl.O=C(O)c1cc(Cl)c(OCCn2ccnc2)s1` [LG 82-4-01, 4-Chloro-5-[2-(1-imidazolyl)-1-ethoxy]-thiophene-2-carboxylic acid hydrochloride]?
IC50 (thromboxane synthetase): 1300 nM; inhibition of TXB2-formation (thromboxane synthetase): more than 95%; specificity as inhibitor of thromboxane synthetase (thromboxane synthetase): specific inhibitors of thromboxane synthetase; inhibition of collagen induced platelet aggregation (platelet aggregation [1]): more than 95%; proaggregatory activity (platelet aggregation [2]): Neither

Source: US4590203A, “Derivatives of thiophene-2-carboxylic acid and their pharmaceutically acceptable acid or base addition salts and use in treatment of conditions caused by thromboxane A2” (Laevosan-Gesellschaft m.b.H. & Co. KG, priority 1982, dated 1986)
